According to PMC11374673, “Discovery of isoquinoline sulfonamides as allosteric gyrase inhibitors with activity against fluoroquinolone-resistant bacteria” (Nature Chemistry, 2024):
Values after ≈ are worked out from the molar mass of the structure shown. Values joined by “and” are separate entries in the source; they are usually repeats but may differ in a detail not shown here. Equal entries are not always repeated. “Also recorded” adds a separate entry of the source.

Tests used:
E. coli W3110 = experiment: MIC by broth microdilution; format: cell-based, Escherichia coli
Method: (§1) MIC was determined by broth microdilution. Single-colony cultures were grown to exponential phase (OD600 of 0.5) aerobically at 37 °C. In case of strains from the Keio collection, 50 µg ml^−1 kanamycin was supplemented to the media to ascertain a homogeneous population. The bacterial suspensions were diluted 100-fold in CAMHB and 50 µl was added to a twofold serial dilution series of test compounds (50 µl per well) in polypropylene 96-well microtitre plates to reach a volume of 100 µl. The plates were sealed with breathable membranes and incubated overnight at 37 °C with constant shaking (600 r.p.m.).

K. pneumoniae ATCC 29665 = experiment: MIC by broth microdilution; format: cell-based, Klebsiella pneumoniae; details: Klebsiella pneumoniae, ATCC29665, broth microdilution; read-out: MIC K. pneumoniae ATCC 29665
Method: as §1

HepG2 = experiment: Cytotoxicity assay (MTT); format: cell-based, human; details: for IC50: MTT, 24 h
Method: (§2) HepG2 (ATCC HB-8065) and HEK293T (ATCC CRL-3216) cell lines were cultured at 37 °C and 7% CO2 in Dulbecco’s modified Eagle medium (Sigma-Aldrich, D6546) with GlutaMax, penicillin (100 µg ml^−1), streptomycin (100 µg ml^−1) and 10% fetal calf serum. Cells were passaged twice a week by first detaching using 0.05% trypsin in phosphate-buffered saline (PBS) and then diluting to appropriate confluence. Compound cytotoxicity was evaluated using the standard (3-(4,5-dimethylthiazol-2-yl)-2,5-diphenyltetrazolium bromide (MTT) assay protocol (MTT assay protocol for cell viability and proliferation, Merck) with slight changes. HepG2 and HEK293T cells were seeded at a density of 1.5 × 10^4 cells per well in a clear 96-well tissue culture treated plate in a final volume of 100 µl in Dulbecco’s modified Eagle medium, supplemented with fetal bovine serum (1%), GlutaMax and penicillin/streptomycin. Cells were incubated for 24 h at 37 °C, 7% CO2 to allow cells to attach to the plates. […] Incubation was done for 24 h at 37 °C, 7% CO2. After the incubation, MTT was added to each well at a final concentration of 0.40 mg ml^−1. The plates were then incubated for 2 h at 37 °C, 7% CO2. Medium was carefully removed via suction, and purple formazan crystals were resuspended in 100 µl DMSO. Absorbance was read at 570 nm using a Clariostar plate reader with MARS (V4.20). The data were then analysed with GraphPad Prism software. IC50 values were calculated using non-linear fitted curve with variable slope settings, with values adjusted for background (plotted absorbance (ABS)sample = (ABSsample – ABSbackground) / (ABSvehicle – ABSbackground)). Technical triplicates for each condition were used, along with biological duplicates.

HEK293T = experiment: Cytotoxicity assay (MTT); format: cell-based, human; details: for MTT data (raw readout): HEK293T
Method: as §2

MIC (E. coli W3110; Escherichia coli, W3110, WT, broth microdilution, read-out: MIC E. coli W3110): 3.1 µM (≈ 1.43 µg/mL)
MIC (K. pneumoniae ATCC 29665): 12.5 µM (≈ 5.78 µg/mL)
Compound: O=S(=O)(NC[C@@H]1CC[C@H](c2ccc(-c3ccc(F)nc3)cc2)N1)c1cccc2cnccc12 [Compound 96]
antimicrobial activity (E. coli W3110; relative to parent compound): twofold increase in potency; also recorded: active
MTT data (raw readout) (HepG2; HepG2, 0.023 uM, experiment n = 2, technical triplicates): 0.335 and 0.356 and 0.336
MTT data (raw readout) (HepG2; HepG2, 0.068 uM, experiment n = 1, technical triplicates): 0.697 and 0.415 and 0.444
MTT data (raw readout) (HepG2; HepG2, 0.068 uM, experiment n = 2, technical triplicates): 0.314 and 0.274 and 0.280
MTT data (raw readout) (HepG2; HepG2, 0.21 uM, experiment n = 1, technical triplicates): 0.410 and 0.391 and 0.401
MTT data (raw readout) (HepG2; HepG2, 0.21 uM, experiment n = 2, technical triplicates): 0.286 and 0.328 and 0.321
MTT data (raw readout) (HepG2; HepG2, 0.62 uM, experiment n = 1, technical triplicates): 0.318 and 0.339 and 0.325
MTT data (raw readout) (HepG2; HepG2, 0.62 uM, experiment n = 2, technical triplicates): 0.277 and 0.335 and 0.337
MTT data (raw readout) (HepG2; HepG2, 1.85 uM, experiment n = 1, technical triplicates): 0.449 and 0.459 and 0.475
MTT data (raw readout) (HepG2; HepG2, 1.85 uM, experiment n = 2, technical triplicates): 0.324 and 0.290 and 0.321
MTT data (raw readout) (HepG2; HepG2, 5.6 uM, experiment n = 1, technical triplicates): 0.376 and 0.380 and 0.428
MTT data (raw readout) (HepG2; HepG2, 5.6 uM, experiment n = 2, technical triplicates): 0.305 and 0.314 and 0.321
MTT data (raw readout) (HepG2; HepG2, 16.7 uM, experiment n = 1, technical triplicates): 0.356 and 0.341 and 0.324
MTT data (raw readout) (HepG2; HepG2, 16.7 uM, experiment n = 2, technical triplicates): 0.281 and 0.283 and 0.288
MTT data (raw readout) (HepG2; HepG2, 50 uM, experiment n = 1, technical triplicates): 0.302 and 0.347 and 0.370
MTT data (raw readout) (HepG2; HepG2, 50 uM, experiment n = 2, technical triplicates): 0.208 and 0.219 and 0.229
IC50 (HepG2; Homo sapiens, HepG2, 24 h): > 100 µM
IC50 (HepG2): > 50 µM
MTT data (raw readout) (HEK293T; 0.023 uM, experiment n = 1, technical triplicates): 1.310 and 1.426 and 1.382
MTT data (raw readout) (HEK293T; 0.023 uM, experiment n = 2, technical triplicates): 1.005 and 1.055 and 0.974
MTT data (raw readout) (HEK293T; 0.068 uM, experiment n = 1, technical triplicates): 1.261 and 1.196 and 1.228
MTT data (raw readout) (HEK293T; 0.068 uM, experiment n = 2, technical triplicates): 1.060 and 1.105 and 1.114
MTT data (raw readout) (HEK293T; 0.21 uM, experiment n = 1, technical triplicates): 1.460 and 1.332 and 1.292
MTT data (raw readout) (HEK293T; 0.21 uM, experiment n = 2, technical triplicates): 0.944 and 1.021 and 1.022
MTT data (raw readout) (HEK293T; 0.62 uM, experiment n = 1, technical triplicates): 1.285 and 1.264 and 1.255
MTT data (raw readout) (HEK293T; 0.62 uM, experiment n = 2, technical triplicates): 0.998 and 0.945 and 0.948
MTT data (raw readout) (HEK293T; 1.85 uM, experiment n = 1, technical triplicates): 1.253 and 1.307 and 1.121
MTT data (raw readout) (HEK293T; 1.85 uM, experiment n = 2, technical triplicates): 0.889 and 0.884 and 0.825
MTT data (raw readout) (HEK293T; 5.6 uM, experiment n = 1, technical triplicates): 0.992 and 0.906 and 1.276
MTT data (raw readout) (HEK293T; 5.6 uM, experiment n = 2, technical triplicates): 0.770 and 0.750 and 0.744
MTT data (raw readout) (HEK293T; 16.7 uM, experiment n = 1, technical triplicates): 0.263 and 0.250 and 0.238
MTT data (raw readout) (HEK293T; 16.7 uM, experiment n = 2, technical triplicates): 0.552 and 0.449 and 0.479
MTT data (raw readout) (HEK293T; 50 uM, experiment n = 1, technical triplicates): 0.081 and 0.067 and 0.062
MTT data (raw readout) (HEK293T; 50 uM, experiment n = 2, technical triplicates): 0.360 and 0.319 and 0.325
IC50 (HEK293T; Homo sapiens, HEK-293T, 24 h, MTT): 22 µM
